Legend:
[1] = tested on: β amyloid protein (Aβ) secreted by E35 cells (human glioma H4 cells transfected with APP751 gene); assay: Inhibition of production or secretion of β-amyloid protein (Aβ) in E35 cells, sandwich ELISA of the supernatant; assay type: cell-based; details: 24 hours with test compound, compared to DMSO control cells, read-out: Activity (IC50, concentration at which 50% inhibition of Aβ production was observed)
Method: The inhibitory activity against formation of β amyloid protein of the compounds obtained in Examples was tested in the method described bellow.
E35 cells were established by transfecting APP751 gene which is a wild type human β-amyloid protein precursor into human glioma cells (H4 cells).
E35 cells were seeded in 96-well plates and cultured in an incubator of 37° C. by using a Dulbecco's Modified Eagle's Medium containing 10% inactivated fetal bovine serum (10% FBS-DMEM). Twenty-four hours after seeding, a test compound dissolved in DMSO so as to give its concentration to be 2000 times as much as that of the final concentration was added to the medium in an amount of 1/2000 capacity of the culture medium. The cells were cultured for additional twenty-four hours, and then the supernatant was collected. The amount of β amyloid protein (Aβ) secreted in the supernatant was measured by the sandwich enzyme-linked immunosorbent assay (ELISA). Described specifically, a monoclonal antibody 25-1, which recognized Aβ25-35, was immobilized onto a 96-well ELISA plate, followed by the incubation at 4° C. for 16 to 20 hours. After washing with a phosphate buffer (pH 7.4) (PBS), a biotinylated monoclonal antibody MA32-40, which recognized Aβ1-8, was added, and the plate was kept at 4° C. for 2 hours. After the supernatant was removed and the well was washed sufficiently with PBS, alkaline phosphatase-conjugated streptavidin was added to the plate. Absorbance was measured while adding BlouPhos (manufactured by KPL) as a substrate. An amount of Aβ contained in the supernatant was calculated using a calibration curve separately created using Aβ of a known concentration. IC50 of the test compound was presented as the concentration at which 50% inhibition of Aβ production was observed compared to the amount of Aβ of the control cells to which only DMSO was added.
When there is at least 10-times difference between the IC50 and the concentration at which cytotoxicity appears, then the compound is judged as a compound having an inhibitory activity against production or secretion of β amyloid protein.

SMILES	IC50 [1]	melting point
Nc1cc(C(c2cc(F)ccc2F)S(=O)(=O)c2ccc(F)c(F)c2)c(Cl)cn1 (stereo not shown) [Example 247, [5-Chloro-4-[(2,5-difluorophenyl)(3,4-difluorophenylsulfonyl)methyl]pyridin-2-yl]amine]	< 5 nM	140 to 141 °C
CS(=O)(=O)Nc1cc(C(c2cc(F)ccc2F)S(=O)(=O)c2ccc(F)c(F)c2)c(Cl)cn1 (stereo not shown) [Example 249, N-[5-Chloro-4-[(2,5-difluorophenyl)(3,4-difluorophenylsulfonyl)methyl]pyridin-2-yl]methanesulfonamide]	< 5 nM	118 to 120 °C
CN(CCO)c1cc(C(c2cc(F)ccc2F)S(=O)(=O)c2ccc(Cl)cc2)c(Cl)cn1 (stereo not shown) [Example 164, 2-[[5-Chloro-4-[(4-chlorophenylsulfonyl)-(2,5-difluorophenyl)methyl]pyridin-2-yl](methyl)amino]ethanol]	< 5 nM	88 to 89 °C
O=S(=O)(c1ccc(Cl)cc1)C(c1cccnc1)c1cc(F)ccc1F (stereo not shown) [Example 19, 3-[[(4-Chlorophenyl)sulfonyl]-(2,5-difluorophenyl)methyl]pyridine]	50 to 500 nM	130 to 131 °C
O=S(=O)(c1ccc(Cl)cc1)C(c1cc(F)ccc1F)c1cc(NCCO)ncc1Cl (stereo not shown) [Example 168, 2-[[5-Chloro-4-[(4-chlorophenylsulfonyl)-(2,5-difluorophenyl)methyl]pyridin-2-yl]amino]ethanol]	< 5 nM	168 to 169 °C
O=S(=O)(c1ccc(Cl)cc1)C(c1cc(F)ccc1F)c1cc(N2CCOCC2)ncc1Cl (stereo not shown) [Example 59, 4-[5-Chloro-4-[(4-chlorophenylsulfonyl)-(2,5-difluorophenyl)methyl]pyridin-2-yl]morpholine]	5 to 50 nM	180 to 181 °C
Nc1cc(C(c2cc(F)ccc2F)S(=O)(=O)c2ccc(F)cc2)c(Cl)cn1 (stereo not shown) [Example 215, [5-Chloro-4-[(2,5-difluorophenyl)-(4-fluorophenylsulfonyl)methyl]pyridin-2-yl]amine]	< 5 nM	157 to 159 °C
O=S(=O)(c1ccc(Cl)cc1)C(c1cc(F)ccc1F)c1cc(N2CCC(O)CC2)ncc1Cl (stereo not shown) [Example 116, 5-Chloro-4-[(4-chlorophenylsulfonyl)-(2,5-difluorophenyl)methyl]-2-(4′-hydroxypiperidin-1′-yl)pyridine]	5 to 50 nM	146 to 148 °C
O=C(O)CCc1cc(C(c2cc(F)ccc2F)S(=O)(=O)c2ccc(C(F)(F)F)cc2)c(Cl)cn1 (stereo not shown) [Example 267, 3-[5-Chloro-4-[(2,5-difluorophenyl)(4-trifluoromethylphenylsulfonyl)methyl]pyridin-2-yl]propionic acid]	5 to 50 nM	166 to 167 °C
O=C(O)CCc1cc(C(c2cc(F)ccc2F)S(=O)(=O)c2ccc(Cl)cc2)c(F)cn1 (stereo not shown) [Example 254, 3-[4-[(4-Chlorophenylsulfonyl)(2,5-difluorophenyl)methyl]-5-fluoropyridin-2-yl]propionic acid]	50 to 500 nM	89 to 91 °C
COc1cc(S(=O)(=O)C(c2cc(F)ccc2F)c2cc(N)ncc2Cl)ccc1Cl (stereo not shown) [Example 239, [5-Chloro-4-[(4-chloro-3-methoxyphenylsulfonyl)(2,5-difluorophenyl)methyl]pyridin-2-yl]amine]	50 to 500 nM	198 to 200 °C
CS(=O)(=O)Nc1cc(C(c2cc(F)ccc2F)S(=O)(=O)c2ccc(F)cc2)c(Cl)cn1 (stereo not shown) [Example 216, N-[5-Chloro-4-[(2,5-difluorophenyl)-(4-fluorophenylsulfonyl)methyl]pyridin-2-yl]methanesulfonamide]	< 5 nM	178 to 179 °C
O=S(=O)(c1ccc(Cl)cc1)C(c1cc(F)ccc1F)c1cc(NS(=O)(=O)C(F)(F)F)ncc1Cl (stereo not shown) [Example 276, N-[5-Chloro-4-[(4-chlorophenylsulfonyl)(2,5-difluorophenyl)methyl]pyridin-2-yl]trifluoromethanesulfonamide]	5 to 50 nM	221 to 223 °C
N#Cc1ccc(S(=O)(=O)C(c2cc(F)ccc2F)c2cc(N)ncc2Cl)cc1 (stereo not shown) [Example 246, 4-[(2-Amino-5-chloropyridin-4-yl)(2,5-difluorophenyl)methylsulfonyl]benzonitrile]	5 to 50 nM	233 to 235 °C
Cc1cnc(N)cc1C(c1cc(F)ccc1F)S(=O)(=O)c1ccc(Cl)cc1 (stereo not shown) [Example 211, [4-[(4-Chlorophenylsulfonyl)(2,5-difluorophenyl)methyl]-5-methylpyridin-2-yl]amine]	< 5 nM	188 to 189 °C
Nc1cc(C(c2cc(F)ccc2F)S(=O)(=O)c2ccc(C(F)(F)F)nc2)c(Cl)cn1 (stereo not shown) [Example 250, [5-Chloro-4-[(2,5-difluorophenyl)(6-trifluoromethylpyridin-3-ylsulfonyl)methyl]pyridin-2-yl]amine]	5 to 50 nM	201 to 202 °C
O=S(=O)(CCN1CCCCC1)Nc1cc(C(c2cc(F)ccc2F)S(=O)(=O)c2ccc(Cl)cc2)c(Cl)cn1 (stereo not shown) [Example 278, N-[5-Chloro-4-[(4-chlorophenylsulfonyl)(2,5-difluorophenyl)methyl]pyridin-2-yl]-2-piperidin-1-ylethanesulfonamide]	< 5 nM	200 to 203 °C
CS(=O)(=O)Nc1cc(C(c2cc(F)ccc2F)S(=O)(=O)c2ccc(Cl)cc2)c(Cl)cn1 (stereo not shown) [Example 197, N-[5-Chloro-4-[(4-chlorophenylsulfonyl)(2,5-difluorophenyl)methyl]pyridin-2-yl]methanesulfonamide]	< 5 nM	220 to 222 °C
N#Cc1ccc(F)c(C(c2cc(N)ncc2Cl)S(=O)(=O)c2ccc(Cl)cc2)c1 (stereo not shown) [Example 234, 3-[(2-Amino-5-chloropyridin-4-yl)(4-chlorophenylsulfonyl)methyl]-4-fluorobenzonitrile]	< 5 nM	> 220 °C
Nc1cc(C(c2cc(F)ccc2F)S(=O)(=O)c2ccc(Cl)nc2)c(Cl)cn1 (stereo not shown) [Example 245, [5-Chloro-4-[(6-chloropyridin-3-ylsulfonyl)(2,5-difluorophenyl)methyl]pyridin-2-yl]amine]	5 to 50 nM	157 to 158 °C
CS(=O)(=O)Nc1cc(C(c2cc(F)ccc2F)S(=O)(=O)c2ccc(Cl)cn2)c(Cl)cn1 (stereo not shown) [Example 242, N-[5-Chloro-4-[(5-chloropyridin-2-ylsulfonyl)(2,5-difluorophenyl)methyl]pyridin-2-yl]methanesulfonamide]	50 to 500 nM	214 to 216 °C
CN1CCN(S(=O)(=O)Nc2cc(C(c3cc(F)ccc3F)S(=O)(=O)c3ccc(Cl)cc3)c(Cl)cn2)CC1 (stereo not shown) [Example 271]	< 5 nM	215 to 218 °C
O=S(=O)(c1ccc(Cl)cc1)C(c1cc(F)ccc1F)c1ccncc1Cl (stereo not shown) [Example 55, 3-Chloro-4-[(4-chlorophenylsulfonyl)-(2,5-difluorophenyl)methyl]pyridine]	5 to 50 nM	160 to 161 °C
O=S(=O)(CCN1CCOCC1)Nc1cc(C(c2cc(F)ccc2F)S(=O)(=O)c2ccc(Cl)cc2)c(Cl)cn1 (stereo not shown) [Example 280, N-[5-Chloro-4-[(4-chlorophenylsulfonyl)(2,5-difluorophenyl)methyl]pyridin-2-yl]-2-morpholin-4-ylethanesulfonamide]	< 5 nM	219 to 221 °C
Nc1cc(C(c2cc(F)ccc2F)S(=O)(=O)c2ccc(Cl)cn2)c(Cl)cn1 (stereo not shown) [Example 241, [5-Chloro-4-[(5-chloropyridin-2-ylsulfonyl)(2,5-difluorophenyl)methyl]pyridin-2-yl]amine]	5 to 50 nM	187 to 189 °C
O=C(O)CCc1ccc(C(c2cc(F)ccc2F)S(=O)(=O)c2ccc(Cl)cc2)nc1 (stereo not shown) [Example 46, 3-[6-[(4-Chlorophenylsulfonyl)-(2,5-difluorophenyl)methyl]pyridin-3-yl]propionic acid]	50 to 500 nM	158 to 160 °C
O=S(=O)(c1ccc(Cl)cc1)C(c1cc(F)ccc1F)c1cc(NCC[N+]2([O-])CCOCC2)ncc1Cl (stereo not shown) [Example 61, 4-[2-[5-Chloro-4-[(4-chlorophenylsulfonyl)-(2,5-difluorophenyl)methyl]pyridin-2-yl]aminoethyl]morpholine-N-oxide]	< 5 nM	–
[O-][S+](c1ccc(Cl)cc1)C(c1cc(F)ccc1F)c1ccncc1Cl (stereo not shown) [Example 56, 3-Chloro-4-[(4-chlorophenylsulfinyl)-(2,5-difluorophenyl)methyl]pyridine]	5 to 50 nM	–
CS(=O)(=O)NCc1ccc(C(c2cc(F)ccc2F)S(=O)(=O)c2ccc(Cl)cc2)nc1 (stereo not shown) [Example 82, N-[[6-(4-Chlorophenylsulfonyl)(2,5-difluorophenyl)methylpyridin-3-yl]methyl]methanesulfonamide]	50 to 500 nM	–

— patent US7932271B2, “Heterocyclic methyl sulfone derivative” (Daiichi Pharmaceutical Co., Ltd., priority 2003, dated 2011)
